Measurements: PubChem BioAssay (NCI)
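Exposure lasted 48 hours, with cells grown in 96-well plates and compounds tested at five concentrations. GI50 marks 50% less growth. TGI is the concentration that stops growth completely.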

Legend:
Assay in all cases: NCI anticancer screen, dose series, 48 h
SNB-78 CNS = tested on: SNB-78 CNS
OVCAR-4 ovarian = tested on: OVCAR-4 ovarian
SK-MEL-28 melanoma = tested on: SK-MEL-28 melanoma
UACC-257 melanoma = tested on: UACC-257 melanoma
RPMI-8226 leukemia = tested on: RPMI-8226 leukemia
MOLT-4 leukemia = tested on: MOLT-4 leukemia
TK-10 renal = tested on: TK-10 renal
HOP-18 NSCLC = tested on: HOP-18 NSCLC
HOP-92 NSCLC = tested on: HOP-92 NSCLC

Row | SMILES | TGI (SNB-78 CNS) [µM] | TGI (OVCAR-4 ovarian) [µM] | TGI (SK-MEL-28 melanoma) [µM] | TGI (UACC-257 melanoma) [µM] | TGI (RPMI-8226 leukemia) [µM] | TGI (MOLT-4 leukemia) [µM] | TGI (TK-10 renal) [µM] | GI50 (SNB-78 CNS) [µM] | GI50 (OVCAR-4 ovarian) [µM] | GI50 (SK-MEL-28 melanoma) [µM] | GI50 (UACC-257 melanoma) [µM] | GI50 (HOP-18 NSCLC) [µM] | TGI (HOP-18 NSCLC) [µM] | GI50 (MOLT-4 leukemia) [µM] | GI50 (TK-10 renal) [µM] | TGI (HOP-92 NSCLC) [µM] | GI50 (HOP-92 NSCLC) [µM] | GI50 (RPMI-8226 leukemia) [µM]
1 | COc1cc(/C=C(\C#N)C(=O)c2ccccc2)ccc1O | > 100 | > 100 | > 100 | > 100 | > 100 | > 100 | > 100 | – | – | – | – | – | – | – | – | – | – | –
2 | CN(C)c1ccc([O][Bi]([Cl])[Cl])cc1 | > 100 | > 100 | > 100 | > 100 | – | > 100 | > 100 | > 100 | > 100 | > 100 | 37.2 | > 100 | > 100 | > 100 | > 100 | – | – | –
3 | COC(=O)C(=O)OC1(C(C)=O)CC2(c3ccccc3)OC1(c1ccccc1)c1ccccc12 (configuration not stated) | 65 | 51.1 | – | 31.6 | > 100 | > 100 | 70.6 | – | – | – | – | – | 84.5 | – | – | 27 | – | –
4 | Oc1ccccc1C=NCc1ccco1 | > 100 | > 100 | > 100 | > 100 | > 100 | > 100 | > 100 | – | – | – | – | – | > 100 | – | – | – | – | –
5 | CC(=O)[CH-]C(=O)c1ccccc1.CC(=O)[CH-]C(=O)c1ccccc1.CC1(C)C2CCC1(C)C([O-])C2.CC1(C)C2CCC1(C)C([O-])C2.[Ti+4] | – | > 100 | > 100 | > 100 | > 100 | > 100 | > 100 | – | 97.3 | 34.1 | 88.7 | 36.6 | > 100 | 34.8 | 53.5 | 34.9 | 12.9 | 25
6 | Cc1ccccc1C(=O)c1ccccc1O | > 100 | > 100 | > 100 | > 100 | – | > 100 | > 100 | – | – | – | – | – | > 100 | – | – | > 100 | – | –
7 | O=C(CO)CC(=O)C(=O)Nc1ccccc1 | > 100 | > 100 | > 100 | > 100 | – | > 100 | > 100 | – | – | – | – | – | > 100 | – | – | > 100 | – | –
8 | Cn1c(=O)nc2n(-c3cccc(Br)c3)c3ccccc3nc-2c1=O | 33.3 | 14.6 | – | 6.58 | 37.7 | – | 24.1 | – | – | – | – | – | 19.4 | – | – | – | – | –
9 | O=C1NC(=O)C2C(=O)NC(=O)C1C2(c1ccccc1)c1cc[nH]c1 (configuration not stated) | > 100 | > 100 | > 100 | > 100 | > 100 | > 100 | > 100 | – | – | – | – | – | – | – | – | > 100 | – | –
10 | CC(=O)[CH-]C(=O)c1ccccc1.CC(=O)[CH-]C(=O)c1ccccc1.[Eu+3].[OH-].[OH3+] | – | > 100 | > 100 | > 100 | > 100 | > 100 | > 100 | – | > 100 | > 100 | > 100 | > 100 | > 100 | > 100 | > 100 | 99.7 | 7.44 | > 100
11 | O=c1cc2ccccc2nn1Cc1cccc(Cl)c1 | > 100 | > 100 | > 100 | > 100 | > 100 | – | > 100 | – | – | – | – | – | > 100 | – | – | > 100 | – | –
